The values below come from patent US20240109836A1, “NON-HALL[…] ANALOGS FOR TREATMENT OF NEUROLOGICAL AND PSYCHIATRIC DISORDERS” (The Trustees of Columbia University in the City of New York, priority 2021, published 2024).

One test has as its target 5-HT2A (Homo sapiens, UniProt P28223). Kind of test: IP1 agonist functional assay. It is filed as cell-based.
A short description of test [1]: Head twitch response assay. It is filed as in vivo, Mice (C57bl/6J). Conditions: mice, 1, 3, 10, and 30 mg/kg s.c., vs positive control DOI. Here is the method:
FIG. 2. […] N=5 mice in each cohort. […] Drugs were administered s.c.
Mice (C57bl/6J, 8-15 weeks, 26-33 g) were weighed and moved to the testing room 30 minutes prior to experimentation. Mice were administered the experimental compound at a selected dose s.c. and then immediately moved to a new cage. Before beginning the test, mice were allowed to remain in this cage for a set amount of time ranging 0-10 min based on the compound. The head twitch assay was performed by a trained observer watching the mouse for a 10 min duration and recording the total number of head twitches observed.
DOI was tested at the doses of 1, 3, 10 and 30 mg/kg (s.c., 5 mice per dose) and testing began immediately after administration of the compound. Ariadne (32), (29) and (38) were tested at the doses of 1, 3, 10, and 30 mg/kg (s.c., 5 mice per dose) and there was a 10 min interval between treatment and testing.

5-HT2A, sequence (P28223 whole entry): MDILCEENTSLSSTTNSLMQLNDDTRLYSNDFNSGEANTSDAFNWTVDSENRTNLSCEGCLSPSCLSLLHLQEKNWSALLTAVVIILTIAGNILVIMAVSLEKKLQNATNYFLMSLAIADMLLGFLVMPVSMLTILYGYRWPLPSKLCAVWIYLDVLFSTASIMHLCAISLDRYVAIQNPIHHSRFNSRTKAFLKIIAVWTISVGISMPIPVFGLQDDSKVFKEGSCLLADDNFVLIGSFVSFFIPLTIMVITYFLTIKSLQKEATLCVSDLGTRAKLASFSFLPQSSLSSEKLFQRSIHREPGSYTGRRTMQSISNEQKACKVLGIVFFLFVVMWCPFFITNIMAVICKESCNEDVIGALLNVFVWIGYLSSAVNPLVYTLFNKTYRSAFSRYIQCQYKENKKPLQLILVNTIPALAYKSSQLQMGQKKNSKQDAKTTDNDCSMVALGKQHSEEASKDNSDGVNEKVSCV

For `CCC(N)Cc1cc(OC)c(COC)cc1OC` (centres unmarked) [compound 38, 1-(2,5-dimethoxy-4-(methoxymethyl)phenyl)butan-2-amine], a half-maximal effect at 5-HT2A (EC50) was put at 3.8 µM. For the same compound, in test [1], the “psychedelic activity (number of head twitches in a 10-min period)” value is listed as “lower psychedelic activity”.
